According to US20030004123A1, “Targeted gene transfer using G protein coupled receptors” (priority 1997, published 2003):

Assays:
[1] = test system: WD human airway epithelial cells; experiment: Cl- secretory response of WD human airway epithelial cultures to lumenal agonists; assay type: cell-based; details: agonist at 10^−4M, FIG. 3
Source text: Epithelial cells are derived from CF and non-CF nasal and bronchial airway epithelia using procedures similar to those described by Gray et al. 1996. Am. J Respir. Cell Mol. Biol. 14, 104-112. Resected nasal turbinates or portions of mainstem/lobar bronchi representing excess donor tissue are obtained at the time of lung transplantation under the auspices of the University of North Carolina at Chapel Hill Institutional Committee on the Protection of the Rights of Human Subjects. Epithelial cells are removed from the specimens by protease XIV digestion as described (Wu, R., et al., 1985. Am. Rev. Respir. Dis. 132, 311-320), but omitting the filtration step. 1-2×10^6 cells are plated per 100 mm tissue culture dish in modified LHC9 medium. Lechner, J. F. and Laveck, M. A. 1985. J. Tiss. Cult. Meth. 9, 43-48. The modifications include increasing the EGF concentration to 25 ng/ml, adjusting the retinoic acid concentration to 5×10^−8 M, and supplementation with 0.5 mg/ml bovine serum albumin and 0.8% bovine pituitary extract. At approximately 75% confluence, the cells are harvested by trypsinization and passage 1 cells are plated at a density of 2.5×10^5 cells on Transwell-Col inserts (Coming-Costar, 24 mm diameter, 0.4 μm pore size), in modified medium. The medium is similar to the supplemented LHC9 except that a 50:50 mixture of LHC Basal (Biofluids) and DMEM-H is used as the base, amphotericin and gentamycin are omitted and the EGF concentration is reduced to 0.5 ng/ml. After the cells grow to confluence (4-6 days) the apical surface of the cultures are given an air-liquid interface for another 25-30 days until use.
Investigations were carried out to identify which 7-TM receptors, if any, are localized in the apical membrane of WD human airway epithelial cells. Cultures of WD cells were exposed to NECA (an A2b receptor agonist), isoproterenol, bradykinin, or ATP (all at 10^−4M), and Cl-secretory responsiveness was determined.

[2] = target: T1, human P2Y2-receptor (HA epitope-tag) in 1321N1 human astrocytoma cells (Homo sapiens, UniProt P41231); details: ELISA, ATPγS exposures of 1 hr; cited from earlier work
T1 construct: expressed in transfected cells; host or cells: 1321N1 human astrocytoma cells
T1 sequence (P41231 whole entry): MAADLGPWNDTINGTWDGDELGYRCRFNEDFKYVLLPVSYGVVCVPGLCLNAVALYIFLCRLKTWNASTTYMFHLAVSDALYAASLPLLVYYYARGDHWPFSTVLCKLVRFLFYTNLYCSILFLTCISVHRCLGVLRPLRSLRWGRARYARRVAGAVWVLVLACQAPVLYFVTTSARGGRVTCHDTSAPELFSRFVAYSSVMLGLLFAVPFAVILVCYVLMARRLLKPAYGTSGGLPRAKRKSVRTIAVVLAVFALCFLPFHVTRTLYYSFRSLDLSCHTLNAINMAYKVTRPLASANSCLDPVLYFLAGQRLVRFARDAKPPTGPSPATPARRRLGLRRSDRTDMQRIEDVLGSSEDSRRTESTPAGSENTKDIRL

[3] = target: T2, HA-tagged human P2Y2 receptor (Homo sapiens, UniProt P41231); experiment: Agonist-induced internalization of HA-P2Y2 receptor in A9 cells; assay type: cell-based; details: ATPγS 10^−4 M, within 45 minutes
T2 construct: expressed in transfected cells; host or cells: A9 cells (retroviral gene transfer)
T2 sequence (P41231 whole entry): as above
Source text: To test the concept that the P2Y2 receptor is a candidate receptor for targeting based on the ability to bind and internalize an exogenous ligand, we have obtained CHO and A9 cells (both of which are not transducible by AdV) that express the HA-tagged human P2Y2 receptor (HA tag on the extracellular N-terminus) by retroviral gene transfer. HA-P2Y2 receptor expressing A9 cells, but not control cells, stain with fluorescently labeled anti-HA Abs under resting conditions. With agonist [ATPγS (10^−4 M)] exposure, approximately 80% of the receptors are internalized within 45 minutes. The internalization of P2Y2 receptor is mediated via coated pits.

[4] = target: T1, human P2Y2-receptor (HA epitope-tag) in 1321N1 human astrocytoma cells; experiment: Internalization of P2Y2-HA receptor in astrocytoma cells (immunofluorescence, ELISA); assay type: cell-based; details: 30 min ATPγS exposure
P2Y2 receptors = target: T3, P2Y2 receptors (Homo sapiens, UniProt P41231); experiment: Inositol phosphate formation in astrocytoma cells expressing P2Y2 receptors; assay type: cell-based; details: FIG. 9A
T3 construct: expressed in transfected cells; host or cells: astrocytoma cells
T3 sequence (P41231 whole entry): as above
Source text: FIG. 9A is a graphical representation of a comparison of agonist potency of U2P4 and UTP in astrocytoma cells expressing P2Y2 receptors.

[5] = Metabolic stability in cystic fibrosis sputum; assay type: in vitro ADME; details: compared with UTP, FIG. 9B
Source text: FIG. 9B is a graphical representation of the metabolic stability of U2P4 compared with UTP in cystic fibrosis sputum.
Biologically active analogs of UTP that are more resistant to biological hydrolysis than UTP have been developed for linkage to vectors. The dinucleotide U2P4 has useful properties.

In the case of Nc1ncnc2c1ncn2[C@@H]1O[C@H](COP(=O)(O)OP(=O)(O)OP(=O)(O)O)[C@@H](O)[C@H]1O [ATP], the Cl-secretory responsiveness [1] is reported as “the greatest response”.
With CC(C)NCC(O)c1ccc(O)c(O)c1 (centres unmarked) [isoproterenol] the Cl-secretory responsiveness [1] was “a Cl-secretory response was detected”.
In the case of CCNC(=O)[C@H]1O[C@@H](n2cnc3c(N)ncnc32)[C@H](O)[C@@H]1O [NECA], the Cl-secretory responsiveness [1] is reported as “a Cl-secretory response was detected”.
In the case of Nc1ncnc2c1ncn2[C@@H]1O[C@H](COP(=O)(O)OP(=O)(O)OP(O)(O)=S)[C@@H](O)[C@H]1O [ATPγS], the “internalization efficiency (loss of receptor sites)” value [2] is listed as 80%, the receptors internalized [3] is listed as “approximately 80%” and the “plasma membrane immunoreactivity of P2Y2-HA receptor” value [4] is listed as “clear loss of immunoreactivity from the plasma membrane”.
In the case of O=c1ccn([C@@H]2O[C@H](COP(=O)([O-])OP(=O)([O-])OP(=O)([O-])OP(=O)([O-])OC[C@H]3O[C@@H](n4ccc(=O)[nH]c4=O)[C@H](O)[C@@H]3O)[C@@H](O)[C@H]2O)c(=O)[nH]1.[Na+].[Na+].[Na+].[Na+] [Example U2P4], the “agonist potency relative to UTP (inositol phosphate release)” value (P2Y2 receptors) is reported as “equipotent with UTP” and the “hydrolysis in cystic fibrosis (CF) sputum” value [5] is reported as “resistant to hydrolysis”.
